Here are results for twelve compounds from patent publication US7943633B2, “Alkaloid compounds and their use as anti-malarial drugs” (Universite Pierre et Marie Curie (Paris VI), priority 2004, dated 2011).

Each structure is given as a SMILES string. Values joined by “and” are separate entries in the source; they are usually repeats but may differ in a detail not shown here. Equal entries are not always repeated. Where two headings read alike, the source gives them in different places. Bounds are passed on as bounds.

In data set [1] the test system is Plasmodium yoelii yoelii 265BY. As to the kind of experiment: In vitro inhibition of P. yoelii yoelii 265BY growth (hepatic stage) in primary murine hepatocytes. Type of data set: cell-based. The settings on record: for IC50: Plasmodium yoelii, Hepatocyte, read-out: CI50 activity P. yoelii 265BY; for Selectivity index CI50 KB/CI50 yoelii: ratio between CI50 of cytotoxicity (KB) and CI50 of anti-malarial activity. The method, then: Primary cultures of mouse hepatocytes were isolated from livers of Swiss mice which were 6 to 8 weeks old by perfusion with collagenase (1 g/L) and purified through a 60% Percoll gradient.
The hepatocytes were cultured in sterile chambers (Lab-Tek) at the rate of 90,000 cells in 0.3 mL of complete culture medium as defined thereafter per well and incubated overnight at 37° C. under a 4% CO2 atmosphere. The hepatocytes' complet culture medium was Williams' E culture medium supplemented with 10% of decomplemented foetal calf serum, 1% glutamine, 1% Na pyruvate, 1% of a mixture of insulin, transferrine and selenium, 1% of non-essential amino-acids and with an antibiotic mixture comprising 1% of a solution of penicillin and streptomycine, 1% augmentin and […] flucytosine.
The parasites infecting the hepatocytes; i.e. the sporozoites, were recovered by dissection of infected anopheles mosquitoes salivary glands.
After grinding them in a Potter grinder with culture medium, the suspension was filtered on a 40 μm mesh filter and centrifuged (15,000 rpm) at 4° C. for 2 mn. The pellet was reintroduced in the complete culture medium. The sporozoites were then counted in a “Cell Vu” counter (CML) and the concentration was adjusted at 100,000 sporozoites per 70 μL, concentration needed for infection.
One day after, the hepatocytes were infected by the above sporozoites from salivary glands of infected anopheles mosquitoes at the rate of 100,000 sporozoites per well in the presence or absence of the product to be tested. When the infection had appeared, the medium was supplemented with 10^−7 M dexamethasone. The products were first solubilized in DMSO.
The infected hepatocytes were washed and fed with culture medium containing the test product, 3 hours and then 24 hours after the infection.
The cultures were stopped by treatment with a cold fixative methanol solution, 48 hours after the infection.
Parasites obtained in schizont stage were immunomarked firstly, with a serum isolated from BALB/c mice immunized with a recombinant fragment from the N-terminal of the recombinant protein I72 that reacted against HSP70 of Plasmodium and secondly with an antibody—a mouse anti-immunoglobulin—conjugated to FITC. Evans Blue and DAPI, a nucleic acid marker, were added to the hepatocytes simultaneously. The schizonts were then counted with a fluorescent microscope.
(§1) The Cl50 value (concentration causing 50% of inhibition in the number of parasites compared to controls wells, non treated) is the mean value of 3 independent evaluations through StatView SI Graphics.

Data set [2] in a line: In vitro cytotoxicity, neutral red, KB cells. Type of data set: cell-based. Particulars: human, KB carcinoma cells (ATCC CCL-17), 72 hours incubation, read-out: CI50 cytotoxicity KB (converted). The method, then:
(§2) Stock solutions of testing compounds were prepared in H2O/DMSO (9/1).
(§3) After an incubation of 72 hours at 37° C. under a 5% CO2 atmosphere, 0.02% of neutral red in PBS was added.
(§4) 24 hours later, culture media were eliminated and cell membranes were lysed by addition of 1% of SDS in water.
(§5) Cell growth was estimated by colorimetric measurement of stained living cells, incorporating neutral red. Optical density was determined at 540 nm on a Titertek Multiskan photometer.
(§6) The Cl50 value was defined as the concentration of compound necessary to inhibit the cell growth to 50% of the control.

The nature of data set [3]: In vitro cytotoxicity, neutral red, HT29 cells. Format: cell-based. Particulars: human, HT29 colon tumor cells (ATCC HTB-38), 72 hours incubation, read-out: CI50 cytotoxicity HT29 (converted). The method, then:
as §2, §3, §4, §5, §6

The test system of data set [4] is Plasmodium falciparum NF54. As to the kind of experiment: In vitro inhibition of P. falciparum NF54 (hepatic stage) in human hepatocytes. Type of data set: cell-based. Particulars: NF54, Hepatocyte, 120 h, fixed 5 days after infection, read-out: CI50 activity P. falciparum NF54. How it is done: B—Human Model: Hepatic Stage of Plasmodium falciparum NF54
Human hepatocytes were obtained by enzymatic perfusion of fragments of liver of human adults which were submitted to partial hepatectomy.
The hepatocytes were infected at 24 hours of their culture by sporozoites obtained from salivary glands of P. falciparum infecting anopheles mosquitoes stephensi (Lab. of Pr. W. Eling, Univ. Of Nijmegen, NL).
The culture medium containing the test product was changed 3 hours after infection, and then renewed at least, each 24 hours during the experiment.
The cultures were fixed 5 days after infection, with the same method as described for the murine hepatocytes.
as §1

Data set [5] has as its system Plasmodium yoelii yoelii 265BY. As to the kind of experiment: In vivo antimalarial activity in Swiss mice infected with sporozoites. The settings on record: for number of parasited red blood cells (parasitemia): compared to control group; for Number of parasited mice/total mice: 100 mg/kg fed four times. How it is done: 40 Swiss mice (six week old) have been subjected to the in vivo assay. They have been allotted in two groups: • a group of 20 mice were fed with compound (1) diluted in sterile water at a dose of 100 mg/kg four times; 24 hours and 1 hour before infection, 24 hours and 40 hours after infection during the hepatic stage period. • a control group of 20 mice were fed with sterile water at the same times.
The infection has been performed by retro-orbital injection of 4,000 sporozoites of Plasmodium yoelii yoelii 265BY in 100 μl phospate-buffered saline per mouse.
The parasitemia was monitored from the third day after the infection D3 when the parasites are liberated from the liver and enter into the blood circulation and each day until the 23rd day D23 after infection. The monitoring was performed by blood smears taken from the tail vein of the mice. The smears were stained with Giemsa and parasited red blood cells were counted with a microscope.
The parasitemia was calculated according to the following formula: Parasited red blood cell number×100/total red blood cell number.

`COC1=C2[C@@H]3[C@H](O)c4ccc(OC)c(O)c4[C@]2(CCN3Cc2ccc(Br)cc2)C[C@H](O)[C@@H]1O` [Compound (7), N-4-bromobenzyl-4,6,7,10-tetrahydroxy-8,14, didehydro-3,8-dimethoxy-morphinan]: in data set [1] (48 h), the IC50 was 2.19 µg/mL and 4.2 µM. The “Selectivity index CI50 KB/CI50 yoelii” value in data set [1] stood at 7.3. The IC50 at 72 h was 15.8 µg/mL and 30.5 µM in data set [2]; > 80 µg/mL and > 154 µM in data set [3].
As to `COc1cc(NC(C)CCCN)c2ncccc2c1` (centres unmarked) [primaquine, reference compound], the IC50 in data set [1] (48 h) is 0.16 µg/mL and 600 nM. Also, the “Selectivity index CI50 KB/CI50 yoelii” value in data set [1] is 11.7. Further, the IC50 at 72 h was 2 µg/mL and 7 µM in data set [2]; 20.1 µg/mL and 70.5 µM in data set [3].
`COC1=C2[C@@H]3[C@H](O)c4ccc(OC)c(O)c4[C@]2(CCN3C2CCCC2)C[C@H](O)[C@@H]1O` [Compound (8), N-cyclopentyl-4,6,7,10-tetrahydroxy-8,14, didehydro-3,8-dimethoxy-morphinan]: the IC50 in data set [1] (48 h) was 1.46 µg/mL and 3.5 µM. Besides, in data set [1], the “Selectivity index CI50 KB/CI50 yoelii” value is listed as 18.9. Besides, the IC50 at 72 h in data set [2] is 27.6 µg/mL and 66.3 µM; in data set [3] it was > 80 µg/mL and > 192 µM.
For the compound `COC1=C2[C@@H]3[C@H](O)c4ccc(OC)c(O)c4[C@]2(CCN3Cc2ccc(O)cc2)C[C@H](O)[C@@H]1O` [Compound (6), N-4-hydroxybenzyl-4,6,7,10-tetrahydroxy-8,14, didehydro-3,8-dimethoxy-morphinan], the IC50 in data set [1] (48 h) is 6.44 µg/mL and 14.2 µM. Further, the “Selectivity index CI50 KB/CI50 yoelii” value in data set [1] is 1.5. For the same compound, the IC50 at 72 h in data set [2] was 9.53 µg/mL and 20.9 µM; in data set [3] it was 49 µg/mL and 108 µM.
As for `COC1=C2[C@@H]3[C@H](O)c4ccc(OC)c(O)c4[C@]2(CCN3Cc2ccc(OC)cc2)C[C@H](O)[C@@H]1O` [Compound (5), N-4-methoxybenzyl-4,6,7,10-tetrahydroxy-8,14, didehydro-3,8-dimethoxy-morphinan], in data set [1] (48 h), the IC50 is 11.4 µg/mL and 24.2 µM. Further, the “Selectivity index CI50 KB/CI50 yoelii” value in data set [1] is reported as 1.9. The IC50 at 72 h was 21.2 µg/mL and 45.3 µM in data set [2]; > 80 µg/mL and > 170 µM in data set [3].
With `O=c1[nH]cc(F)c(=O)[nH]1` [5-fluorouracile, reference compound], the IC50 at 72 h was 0.047 µg/mL and 360 nM in data set [2]; 54.9 µg/mL and 422 µM in data set [3].
For `COC1=C2[C@H]3NCC[C@]2(C[C@H](O)[C@@H]1O)c1c(ccc(OC)c1O)[C@H]3O` [Compound (1), 4,6,7,10-tetrahydroxy-8,14-didehydro-3,8-dimethoxy-morphinan], the IC50 in data set [1] (48 h) is 1.08 µg/mL and 3.1 µM; in data set [4], 1.51 µg/mL and 4.3 µM. In addition, in data set [1], the “Selectivity index CI50 KB/CI50 yoelii” value is on record as 1.8. Also, the IC50 at 72 h was 1.99 µg/mL and 5.7 µM in data set [2]; 22 µg/mL and 63 µM in data set [3]. Also, the “number of parasited red blood cells (parasitemia)” value is given as “reduces parasitemia” in data set [5] (100 mg/kg) and “significant decrease” in data set [5] (100 mg/kg, listed as compound (1)). Moreover, in data set [5] (100 mg/kg, oral administration), the “total protection against malaria infection in mice” value came to 70%. In addition, the “survival of mice at D23” value in data set [5] (100 mg/kg, control group 75%) was 90%. The “delay of parasitemia for treated mice not protected, compared to control” value in data set [5] (100 mg/kg, the 30% of treated mice not protected) is at least 3 days. In addition, the “Number of parasited mice/total mice” value in data set [5] (D3 post-infection) is 0/20; in data set [5] (D4 post-infection) it was 0/20; in data set [5] (D5 post-infection) it was 0/20; in data set [5] (D6 post-infection), 1/20; in data set [5] (D7 post-infection), 4/20; in data set [5] (D8 post-infection) it was 6/20. In data set [5] (D23 post-infection), the “Number of parasited mice/total mice” value was 6/18.
For `COC1=C2[C@@H]3[C@H](O)c4ccc(OC)c(O)c4[C@]2(CCN3C)C[C@H](O)[C@@H]1O` [Compound (3), N-methyl-4,6,7,10-tetrahydroxy-8,14, didehydro-3,8-dimethoxy-morphinan], the IC50 in data set [1] (48 h) is 2.09 µg/mL and 5.8 µM. Besides, in data set [1], the “Selectivity index CI50 KB/CI50 yoelii” value is 15.5. The IC50 at 72 h in data set [2] was 32.3 µg/mL and 89 µM; in data set [3], > 80 µg/mL and > 220 µM.
`CCCN1CC[C@@]23C[C@H](O)[C@H](O)C(OC)=C2[C@@H]1[C@H](O)c1ccc(OC)c(O)c13` [Compound (4), N-propyl-4,6,7,10-tetrahydroxy-8,14, didehydro-3,8-dimethoxy-morphinan]: the IC50 in data set [1] (48 h) is 4.93 µg/mL and 12.6 µM. Further, the “Selectivity index CI50 KB/CI50 yoelii” value in data set [1] stood at 8.2. Besides, the IC50 at 72 h was 40.4 µg/mL and 103 µM in data set [2]; > 80 µg/mL and > 204 µM in data set [3].
In the case of `COC1=C2[C@@H]3Cc4ccc(OC)c(O)c4[C@]2(CCN3)C[C@H](O)[C@@H]1O` [Compound (2), 4,6,7-trihydroxy-8,14-didehydro-3,8-dimethoxy-morphinan], the IC50 was 1.5 µg/mL and 4.5 µM in data set [1] (48 h); 3.36 µg/mL and 10.1 µM in data set [4]. The “Selectivity index CI50 KB/CI50 yoelii” value in data set [1] is given as 0.9. The IC50 at 72 h in data set [2] was 1.3 µg/mL and 3.9 µM; in data set [3], 12.2 µg/mL and 36.8 µM.
As to `CC[C@]1(O)C[C@@H]2CN(CCc3c([nH]c4ccccc34)[C@@](C(=O)OC)(c3cc4c(cc3OC)N(C)[C@H]3[C@@](O)(C(=O)OC)[C@H](OC(C)=O)[C@]5(CC)C=CCN6CC[C@]43[C@@H]65)C2)C1` [Vinblastine, vinblastine, reference compound], the IC50 at 72 h in data set [2] is 0.018 µg/mL and 22 nM; in data set [3], 0.008 µg/mL and 9.9 nM.
As for `O=C1C(O)=C([C@H]2CC[C@H](c3ccc(Cl)cc3)CC2)C(=O)c2ccccc21` [Atovaquone, atovaquone, reference compound], the IC50 came to 0.021 µg/mL in data set [1] (murine hepatocytes, schizonts counted 48 hours after infection, mean of 3 evaluations) and 57 nM in data set [1] (murine hepatocytes, schizonts counted 48 hours after infection). Also, the “Selectivity index CI50 KB/CI50 yoelii” value in data set [1] was 891.2. The IC50 at 72 h in data set [2] is 18.6 µg/mL and 50.8 µM; in data set [3], 44.6 µg/mL and 122 µM.
